Measured values published in EP4324461A1, “(E)-N-CINAMOYLAMINOALKANOLES WITH MELANOGENESIS INHIBITORY ACTIVITY” (UNIWERSYTET JAGIELLONSKI, priority 2022, dated 2024).

Experiments:
Type in all cases: cell-based
[1] = tested on: Primary melanocytes; assay: Safety, MTT test in primary melanocytes; conditions: 48 hours
Protocol: (§1) In order to test the safety of the compounds, both normal human cells were used: keratinocytes (HaCaT), fibroblasts (BJ), primary melanocytes that occur in the skin, as well as human cancer cells: the hepatocarcinoma line HepG2 and the neuroblastoma line SH-SY5Y, which are considered a model for the assessment of hepatocytotoxicity and neurocytotoxicity. The concentrations of the tested compounds in the range of 250-100 µM were used in the studies. The cell lines used in the research were purchased from the American Type Culture Collection (ATCC) and were cultured in media recommended by the manufacturer with the addition of FBS and antibiotics in an incubator ensuring appropriate culture conditions, i.e. humidity, temperature and CO2 concentration. Cells were seeded into multiwell plates and incubated with the test compounds for 48 hours. After this time, MTT and LDH tests were performed to assess cell viability. The MTT test is based on the ability to transform the substrate: [3-(4,5-dimethyl-2-thiazolyl)-2,5-diphenyl-2H-tetrazolium bromide into a colored product only by living cells. The absorbance at 570 nm, which corresponds to the absorption maximum for the product, is directly proportional to cell viability. The LDH test is based on testing the activity of the enzyme lactate dehydrogenase in the culture medium, which is released from cells as a result of damage to the cell membrane, e.g. as a result of cell death. Triton X-100 was used as a positive control in the test. The determination is colorimetric, the substrate is transformed by the released enzyme into a colored product, an increase in absorbance indicates a larger amount of the released enzyme, and thus confirms greater damage to cell membranes. Tables 7 and 8 present the results obtained, which correspond to the viability of cells incubated with the compounds in relation to the viability of cells constituting a control sample, i.e. incubated with the solvent (DMSO) at the same concentration as in the case of the groups tested in the MTT test or in relation to the results obtained for the Triton X-100 positive control in the LDH test. They indicate that the compounds are safe at the concentrations tested. Table 7. Viability of tested normal human cell lines: keratinocytes (HaCaT), fibroblasts (BJ) and primary melanocytes after incubation with the tested compounds - determination in the MTT test (% of solvent control ± SD) and LDH (percentage of positive control - Triton X-100.

[2] = tested on: Hepatocarcinoma HepG2; assay: Safety, LDH test in HepG2; conditions: 48 hours, positive control Triton X-100
Protocol: as §1

[3] = tested on: Primary melanocytes; assay: Safety, LDH test in primary melanocytes; conditions: 48 hours, positive control Triton X-100
Protocol: as §1

[4] = tested on: neuroblastoma SH-SY5Y; assay: Safety, MTT test in SH-SY5Y; conditions: 48 hours
Protocol: as §1

[5] = tested on: Keratinocytes (HaCaT); assay: Safety, LDH test in keratinocytes; conditions: 48 hours, positive control Triton X-100
Protocol: as §1

[6] = tested on: Hepatocarcinoma HepG2; assay: Safety, MTT test in HepG2; conditions: 48 hours
Protocol: as §1

[7] = tested on: Keratinocytes (HaCaT); assay: Safety, MTT test in keratinocytes; conditions: 48 hours
Protocol: as §1

Compound	Primary melanocytes MTT ([1]; 100 µM)	Primary melanocytes MTT ([1]; 150 µM)	Primary melanocytes MTT ([1]; 200 µM)	Primary melanocytes MTT ([1]; 250 µM)	Hepatocarcinoma HepG2 LDH ([2]; 100 µM)	Hepatocarcinoma HepG2 LDH ([2]; 150 µM)	Hepatocarcinoma HepG2 LDH ([2]; 200 µM)	Hepatocarcinoma HepG2 LDH ([2]; 250 µM)	Primary melanocytes LDH ([3]; 100 µM)	Primary melanocytes LDH ([3]; 150 µM)	Primary melanocytes LDH ([3]; 200 µM)	Primary melanocytes LDH ([3]; 250 µM)	Neuroblastoma SH-SYSY MTT ([4]; 100 µM)	Neuroblastoma SH-SYSY MTT ([4]; 150 µM)	Neuroblastoma SH-SYSY MTT ([4]; 200 µM)	Neuroblastoma SH-SYSY MTT ([4]; 250 µM)	Keratinocytes (HaCaT) LDH ([5]; 100 µM)	Keratinocytes (HaCaT) LDH ([5]; 150 µM)	Keratinocytes (HaCaT) LDH ([5]; 200 µM)	Keratinocytes (HaCaT) LDH ([5]; 250 µM)	further results
O=C(/C=C/c1ccc(Cl)cc1)NCCCO [H-330/21, (2E)-3-(4-chlorophenyl)-N-(3-hydroxypropyl)prop-2-enamide]	101.42±2.21 % of solvent control	97.02±4.49 % of solvent control	93.78±2.29 % of solvent control	90.27±2.25 % of solvent control	5.38 percentage of positive control	4.90 percentage of positive control	12.16 percentage of positive control	19.02 percentage of positive control	5.63 percentage of positive control	13.09 percentage of positive control	10.91 percentage of positive control	18.10 percentage of positive control	99.79±5.34 % of solvent control	99.86±3.76 % of solvent control	99.79±3.97 % of solvent control	99.11±3.66 % of solvent control	3.66 percentage of positive control	5.33 percentage of positive control	17.03 percentage of positive control	24.24 percentage of positive control	Hepatocarcinoma HepG2 MTT ([6]; 100 µM): 100.73±4.51 % of solvent control; Hepatocarcinoma HepG2 MTT ([6]; 150 µM): 100.44±3.93 % of solvent control; Hepatocarcinoma HepG2 MTT ([6]; 200 µM): 100.86±6.41 % of solvent control; Hepatocarcinoma HepG2 MTT ([6]; 250 µM): 93.16±1.71 % of solvent control; Keratinocytes (HaCaT) MTT ([7]; 100 µM): 102.03±1.45 % of solvent control; Keratinocytes (HaCaT) MTT ([7]; 150 µM): 101.42±2.04 % of solvent control; Keratinocytes (HaCaT) MTT ([7]; 200 µM): 97.07±2.81 % of solvent control; Keratinocytes (HaCaT) MTT ([7]; 250 µM): 94.89±1.06 % of solvent control
O=C(/C=C/c1ccc(Cl)cc1)NCCO [H-427/21, (2E)-3-(4-chlorophenyl)-N-(2-hydroxyethyl)prop-2-enamide]	102.20±2.24 % of solvent control	100.57±2.18 % of solvent control	93.78±2.18 % of solvent control	85.19±2.03 % of solvent control	3.09 percentage of positive control	4.45 percentage of positive control	5.98 percentage of positive control	13.51 percentage of positive control	3.93 percentage of positive control	4.44 percentage of positive control	4.31 percentage of positive control	15.01 percentage of positive control	100.48±3.67 % of solvent control	100.96±2.72 % of solvent control	101.30±2.94 % of solvent control	102.60±9.66 % of solvent control	2.76 percentage of positive control	3.69 percentage of positive control	6.50 percentage of positive control	17.79 percentage of positive control	Hepatocarcinoma HepG2 MTT ([6]; 100 µM): 99.61±4.37 % of solvent control; Hepatocarcinoma HepG2 MTT ([6]; 150 µM): 98.44±3.94 % of solvent control; Hepatocarcinoma HepG2 MTT ([6]; 200 µM): 97.07±4.00 % of solvent control; Hepatocarcinoma HepG2 MTT ([6]; 250 µM): 100.08±10.58 % of solvent control; Keratinocytes (HaCaT) MTT ([7]; 100 µM): 100.47±3.65 % of solvent control; Keratinocytes (HaCaT) MTT ([7]; 150 µM): 98.15±2.63 % of solvent control; Keratinocytes (HaCaT) MTT ([7]; 200 µM): 99.24±3.00 % of solvent control; Keratinocytes (HaCaT) MTT ([7]; 250 µM): 89.94±4.66 % of solvent control
